± gives the expanded uncertainty stated by the source.
Experiment: xn = mol fraction of the nth substance listed
Conditions: Drop volume

CCCC[n+]1ccc(C)cc1.F[B-](F)(F)F [1-butyl-4-methylpyridinium tetrafluoroborate] + CO
surface tension liquid-gas [mN/m]
Conditions | 293.15 K | 303.15 K | 313.15 K | 323.15 K
x1 = 0.0247 | 23.3 ± 0.27 | 22.55 ± 0.26 | 21.71 ± 0.25 | 20.88 ± 0.24
x1 = 0.0983 | 25.35 ± 0.29 | 24.66 ± 0.28 | 23.92 ± 0.27 | 23.23 ± 0.27
x1 = 0.195 | 27.93 ± 0.32 | 27.31 ± 0.31 | 26.68 ± 0.3 | 26.12 ± 0.3
x1 = 0.2914 | 30.53 ± 0.35 | 29.98 ± 0.34 | 29.46 ± 0.33 | 29.05 ± 0.33
x1 = 0.3909 | 33.11 ± 0.37 | 32.62 ± 0.37 | 32.2 ± 0.36 | 31.91 ± 0.36
x1 = 0.4915 | 35.62 ± 0.4 | 35.17 ± 0.4 | 34.81 ± 0.4 | 34.6 ± 0.39
x1 = 0.5378 | 36.77 ± 0.42 | 36.34 ± 0.41 | 36.02 ± 0.41 | 35.84 ± 0.41
x1 = 0.61 | 38.46 ± 0.44 | 38.04 ± 0.43 | 37.73 ± 0.43 | 37.57 ± 0.43
x1 = 0.6875 | 40.19 ± 0.46 | 39.77 ± 0.46 | 39.45 ± 0.45 | 39.29 ± 0.45
x1 = 0.7911 | 42.37 ± 0.49 | 41.9 ± 0.49 | 41.55 ± 0.48 | 41.32 ± 0.48
x1 = 0.842 | 43.32 ± 0.51 | 42.81 ± 0.5 | 42.4 ± 0.49 | 42.1 ± 0.49
x1 = 0.8754 | 43.91 ± 0.51 | 43.36 ± 0.51 | 42.91 ± 0.5 | 42.54 ± 0.5
x1 = 1 | 45.82 ± 0.54 | 45.09 ± 0.54 | 44.41 ± 0.53 | 43.71 ± 0.52
